What was measured:
[1] = Subcutaneous plasma and sciatic nerve pharmacokinetic studies in mice; assay type: in vivo; conditions: 10 mg/kg equivalent s.q., 10-120 min post dose
Procedure: Bioanalysis of parent and intact prodrug in plasma and tissues: Prior to extraction, frozen samples were thawed on ice. For plasma, 50 μL of the sample was transferred into siliconized microcentrifuge tubes. For sciatic nerves, the samples were weighed in a 1.7 mL tubes and homogenized in 5× the volume of methanol. The calibration curves were prepared using naïve plasma and sciatic nerves in a concentration range of 50-10000 pmol/g or pmol/mL. Sample preparation involved a single liquid extraction by addition of 300 μL of methanol with internal standard (losartan 200 nM in methanol), followed by vortexing for 30 s and then centrifugation at 10,000×g for 10 min. Supernatant (about 250 μL) was transferred and evaporated to dryness at 40° C. under a gentle stream of nitrogen. The residue was reconstituted with 50 μL of 30% acetonitrile and analysed by LC/MS/MS.
Chromatographic analysis was performed using an Accela™ ultra high-performance system consisting of an analytical pump, and an autosampler coupled with TSQ Vantage mass spectrometer (Thermo Fisher Scientific Inc., Waltham, MA). […] The mobile phase used was composed of 0.1% formic acid in acetonitrile and 0.1% formic acid in H2O with gradient elution, starting with 10% (organic) linearly increasing to 99% up to 2.5 min, maintaining at 99% (2.5-3.5 min) and reequlibrating to 10% by 4.5 min. The total run time for each analyte was 4.5 min. The mass transitions (M−H)− used for Compound 50 were 280.077>175.168, 203.156; and for losartan were 420.895>127.040, 179.108.

[2] = In vitro metabolic stability in human plasma; assay type: in vitro ADME; conditions: 37° C.
Procedure: (§1) For metabolic stability, plasma (mouse, and human) and liver microsomes (mouse and human) were used. For stability, prodrugs (10 μM) were spiked in each matrix and incubated in an orbital shaker at 37° C. At predetermined times (0, 30 and 60 min), 100 μL aliquots of the mixture in triplicate were removed and the reaction quenched by addition of three times the volume of ice cold acetonitrile spiked with the internal standard (losartan 5 μM). The samples were vortexed for 30 s and centrifuged 12000 g for 10 min. 50 μL supernatant diluted with 50 μL water was transferred to a 250 μL polypropylene vial sealed with a Teflon cap. Prodrug disappearance was monitored over time using a liquid chromatography and tandem mass spectrometry (LC/MS/MS) method as described below.
(§2) For LC/MS/MS, prodrugs were separated with Thermo Scientific Accela UPLC system coupled to Accela open autosampler on an Agilent C18 (100×2.1 mm id) UPLC column. The autosampler was temperature controlled and operating at 10° C. […] The column effluent was monitored using TSQ Vantage triple-quadrupole mass spectrometric detector, equipped with an electrospray probe set in the positive ionization mode. […]
(§3) For quantification of compound remaining, disappearance of prodrugs was measured from ratio of peak areas of analyte to IS. Percentage remaining was calculated in the following manner: […]

[3] = In vitro metabolic stability in mouse plasma; assay type: in vitro ADME; conditions: 37° C.
Procedure: as §1, §2, §3

[4] = test system: rat chronic constriction injury (CCI) model of neuropathic pain; experiment: Chronic constrictive injury (CCI) model of neuropathic pain, thermal hyperalgesia; assay type: in vivo; conditions: oral daily, 3 mg/kg dose equivalent of 1 (50), 4.6 mg/kg/day for 12
Description: All experimental protocols were approved by the Institutional Animal Care and Use Committee at Johns Hopkins University (Baltimore, MD) and adhered to all of the applicable institutional and governmental guidelines for the humane treatment of laboratory animals. Male Sprague-Dawley rats (200-250 g; n=10-15 per group) were subjected to peripheral neuropathy injury by constriction of the sciatic nerve performed according to methods described previously. (Novakova, et al., 2016; Bennett, et al., 1988; Attal, et al., 1990) In brief, the common sciatic nerve was exposed and 4 ligatures (4.0 chromic gut) tied loosely around it with 1 mm spacing. Wound clips were used to close wounds and animals were returned to home cages for recovery. Hyperalgesia testing was initiated 10 days post-surgery. Pain sensitivity was assessed by determining withdrawal latencies in response to a constant thermal stimulus directed to the plantar surface of the hind paw using a Basile Plantar apparatus (Ugo Basile, Vaarese, Italy) according to the method described by Hargreaves et al. (Hargreaves, et al., 1988) Apparatus was calibrated so that normal rats respond to the stimulus within 15 sec of application. Withdrawal latency (i.e., the time taken for the rat to withdraw its paw from the heat source) was measured to the nearest 0.1 sec. The “difference in score” was calculated by subtracting the average latency of the paw on the non-ligated versus ligated side. Each animal was tested during two experimental sessions per week, with three days allowed to elapse between test sessions. Test agents, prodrug 12 (3 mg/kg equivalent of 1), or gabapentin (50 mg/kg and 100 mg/kg po) as a positive control were dosed daily throughout the study via oral gavage and one hour before testing on experimental days. Statistical analysis with students t-test was used to determine differences between control and treatment group.

[5] = test system: rat chronic constriction injury (CCI) model of neuropathic pain; experiment: as above; assay type: in vivo; conditions: 1 mg/kg subcutaneous dose (dose equivalent of 50)
[6] = Oral plasma pharmacokinetic studies in mice; assay type: in vivo; conditions: mice (n=3), 10 mg/kg equivalent dose, plasma 30 min post dose
Procedure: All pharmacokinetic studies in mice were conducted according to protocols approved by the Animal Care and Use Committee at Johns Hopkins University (Baltimore, MD). Briefly, male CD 1 mice between 25 g and 30 g were obtained from Harlan Laboratories (Indianapolis, Indiana), and maintained on a 12-hour light-dark cycle with ad libitum access to food and water.
Compound 1 and its prodrugs were administered to male mice as a single (p.o.) dose of 10 mg/kg equivalent. Dosing solutions were prepared on the day of the experiment in 50 mM HEPES buffered saline and pH adjusted to 7.4. The mice were sacrificed by pentobarbital injection at 30 minutes post drug administration, and blood collected via cardiac puncture was placed into iced heparin-coated BD microtainers. Blood samples were spun at 2,000 g for 15 minutes, plasma was removed and stored at −80° C. until LC-MS analysis as previously described. (Novakova, et al., 2016) Briefly, chromatographic analysis was performed using an Accela™ ultra high-performance system consisting of an analytical pump, and an autosampler coupled with TSQ Vantage mass spectrometer (Thermo Fisher Scientific Inc., Waltham, MA). […]
Bioanalysis of parent and intact prodrug in plasma and tissues: Prior to extraction, frozen samples were thawed on ice. […] The residue was reconstituted with 50 μL of 30% acetonitrile and analysed by LC/MS/MS. […]

| SMILES | plasma (systemic) levels of active compound 50 after subcutaneous dosing ([1]; plasma) | sciatic nerve exposure of active compound 50 after subcutaneous dosing ([1]; sciatic nerve) | metabolic stability in human plasma [2] | metabolic stability in mouse plasma [3] | antinociceptive effect on thermal hyperalgesia, ligated side [4] | reversal of thermal hyperalgesia [5] | release / plasma exposure of active compound 50 after oral dosing [6] |
| --- | --- | --- | --- | --- | --- | --- | --- |
| CC(=O)ONC(=O)CCC(Cc1ccc(C(=O)O)cc1)C(=O)O (stereo not shown) [Compound 7, 4-(5-(Acetoxyamino)-2-carboxy-5-oxopentyl)benzoic acid] | high systemic levels | excellent nerve exposure | moderately stable | moderately stable | efficacious | efficacious |  |
| CC(=O)ONC(=O)CCC(Cc1cccc(C(=O)O)c1)C(=O)O (stereo not shown) [Compound 34, 3-(5-(Acetoxyamino)-2-carboxy-5-oxopentyl)benzoic acid] |  |  |  |  |  |  | best release |

From patent US11866394B2, “Prodrugs of hydroxamate-based GCPII inhibitors” (The Johns Hopkins University, priority 2016, dated 2024)
